Where two headings read alike, the source gives them in different places.
What was measured:
A375res cells [1] = experiment: Proliferation assay in vemurafenib-resistant melanoma cells A375res; details: 72 hour proliferation assay
A375res cells [2] = system: A375res cells
[3] = system: phospho-ERK in HCT-116 cells; experiment: HCT-116 cell pERK assay (AlphaScreen SureFire); assay type: cell-based; details: B-Raf wild type, K-Ras mutation
Protocol: Examples of Formula I are tested against HCT-116 cells harboring wild type B-Raf and K-Ras mutation. The phospho-ERK activities are evaluated as described below.
HCT-116 cells (catalog #CCL-247) are obtained from the American Type Culture Collection (ATCC, Manassas, Va.). Briefly, cells are grown in McCoy's 5A supplemented with 10% characterized fetal bovine serum (Invitrogen, Carlsbad, Calif.), and 1% Penicillin/Streptomycin/L-Glutamine at 37 degrees Celsius, 5% CO2, and 95% humidity. Cells are allowed to expand until reaching 75-90% confluency at which point they are subcultured or harvested for assay use. HCT-116 cells suspended in complete media are added to 384-well tissue culture treated plates (3×10^5 cells/mL; 7,500 cells per well). The cells are incubated overnight at 37 degrees Celsius, 5% CO2, and 95% humidity. Next, test compound or DMSO diluted in complete media is added to the wells (0.25% final DMSO concentration). The plates are then incubated for 4 hours at 37 degrees Celsius, 5% CO2, and 95% humidity. Following compound incubation, the cells are lysed at 4° C. for 20 minutes with shaking. Cell lysates are centrifuged and the supernatant is transferred to a new plate. An aliquot of each lysate is transferred to a white 384-well assay plate. Using the AlphaScreen SureFire pERK kit (Perkin-Elmer, Waltham, Mass.), an acceptor bead mixture is added to each well and incubated for 2 h at room temperature in the dark. A donor bead mixture is then added to each well and incubated for 2 h at room temperature in the dark. Plates are read using a Synergy2 plate reader (Biotek, Winooski, Vt.) in Plate Mode with Timing Control. Read: (F)1: excitation: 680/30 nm, emission: Plug. 2: Excitation: Plug, emission: 570/100 nm. Top mirror 635 nm. Data is analyzed using Prism software (Graphpad, San Diego, Calif.) to calculate IC50 values and Excel software (Microsoft, Redmond, Wash.) to calculate stimulation compared to control.

| Compound | IC50 shift A375 to A375res (A375res cells [1]) | IC50 shift A375 to A375res (A375res cells [2]) | concentrations at which the pERK signal is stimulated [3] |
| --- | --- | --- | --- |
| CCCS(=O)(=O)Nc1ccc(F)c(C(=O)c2c[nH]c3ncc(Cl)cc23)c1F [PLX4720, reference compound] | more than 27 fold | – | – |
| CCCS(=O)(=O)Nc1ccc(F)c(C(=O)c2c[nH]c3ncc(-c4ccc(Cl)cc4)cc23)c1F [vemurafenib, reference compound] | – | more than 57 fold | up to 3 uM |

Reference: patent publication US9334267B2, “RAF inhibitor compounds” (Deciphera Pharmaceuticals, LLC, priority 2012, dated 2016)
